Columns and labels:
steroid sulfatase (STS) = biological target: T1, steroid sulfatase (STS) (Homo sapiens, UniProt P08842); assay: Steroid sulfatase (STS) inhibition, [3H]-E1S to [3H]-E1, homogenate of transfected HEK-293 cells; format: biochemical; settings: transformation of E1S into E1 in homogenate of HEK-293 cells transfected with STS; read-out: Steroid Sulfatase Inhibition IC50
T1 construct: expressed in transfected cells; host or cells: HEK-293 cells stably transfected with STS (G418 selection), obtained from Dr. Van Luu-The; used as freeze-thaw homogenate
T1 sequence (P08842 22-583): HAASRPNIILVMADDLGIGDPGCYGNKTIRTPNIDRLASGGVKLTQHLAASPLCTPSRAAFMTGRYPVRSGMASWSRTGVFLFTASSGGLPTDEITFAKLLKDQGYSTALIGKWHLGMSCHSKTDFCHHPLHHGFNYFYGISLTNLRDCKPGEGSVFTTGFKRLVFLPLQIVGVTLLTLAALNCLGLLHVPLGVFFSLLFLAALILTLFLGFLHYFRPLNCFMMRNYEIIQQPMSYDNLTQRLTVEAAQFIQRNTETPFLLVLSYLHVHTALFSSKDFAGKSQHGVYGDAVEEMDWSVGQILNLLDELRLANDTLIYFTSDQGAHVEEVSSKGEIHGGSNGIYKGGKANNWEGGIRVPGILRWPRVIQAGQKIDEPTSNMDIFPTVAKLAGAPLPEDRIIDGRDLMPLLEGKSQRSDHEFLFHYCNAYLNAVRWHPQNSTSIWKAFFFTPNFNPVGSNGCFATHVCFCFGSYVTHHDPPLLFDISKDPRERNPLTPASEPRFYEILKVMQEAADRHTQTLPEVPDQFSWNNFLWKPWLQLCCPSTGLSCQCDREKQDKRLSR
Experimental: To test STS inhibition, we used homogenated HEK-293 cells overexpressing STS and evaluated the capacity of our compounds to inhibit the conversion of [^3H]-E1S into [^3H]-E1. […] This is outlined in FIG. 5.
An enzymatic assay previously described was used for the inhibition of the transformation of estrone sulfate (E1S) to estrone (E1) by STS.^72 Briefly, the transfected HEK-293 cells were homogenized by repeated (5 times) cycles of freezing (−80° C.) and thawing on ice (4° C.). The homogenates were then incubated for 2 h at 37° C. (shaking water bath) with or without inhibitors (0.01 μM-1 μM) in presence of [^3H]-E1S (9 nM), adjusted to 1 μM with E1S, in a Tris-acetate buffer (pH 7.4) containing 5 mM EDTA and 10% glycerol. After the incubation, 1 mL of xylene was added to each tube and the solutions were then centrifuged at 3000 rpm for 20 min to separate the organic ([^3H]-E1) and aqueous ([^3H]-E1S) phases. Once 500 μL of each phase was added to 10 mL of Biodegradable Counting Scintillant, the radioactivity of samples was recorded using a Wallac 1411 Liquid Scintillation Counter. The percentage of inhibition was determined by comparison with the control (buffer+homogenate+[^3H]-E1S) which was set to 0% of inhibition. IC50 value was obtained using GraphPad Prism 5 (GraphPad Software, La Jolla, Calif.).

[1] = system: osteoblast-like Saos-2 cells; assay: Saos-2 cell proliferation, MTS; format: cell-based; settings: for Bone cells Saos-2 (ER+) SERM effect Proliferative activity (%): in percentage of control (100%; 0.1 nM of estradiol)
Excerpt: First, we wanted to evaluate their effect on cell proliferation. […] This is outlined in FIG. 8A. […] One of the main roles of osteoblasts in bone tissue is to construct a calcified extracellular matrix.^15 As such, bone formation is not principally due to osteoblasts proliferation but rather osteoblasts maturation into mature osteocytes. […] This is outlined in FIG. 8B.
(§1) CellTitter 96® Aqueous One Solution Cell Proliferation Assay was used as an indirect colorimetric measurement of cell proliferation according to the manufacturer's instructions. Briefly, after the treatments, 20 μL of MTS solution was added to each well (100 μL) of the plates and incubated at 37° C. for 2 h (Saos-2) or 4 h (T-47D). The absorbance at 490 nm was then measured with a Thermo max microplate reader (Molecular Devices, Sunnyvale, Calif.). The control (culture media+DMSO) is set to 100% of cell proliferation.
Saos-2 cells were suspended in phenol-red free McCoy's 5A medium supplemented with 10% charcoal-stripped FBS, penicillin (100 IU/mL) and streptomycin (100 μg/mL). The cells were seeded in 96-well plates at a density of 3 000 cells/well and allowed to attach. After 24 h, the inhibitors and the reference compounds diluted in fresh culture media were added to the wells and replaced every 2 days for 7 days of treatment.

[2] = system: alkaline phosphatase (ALP) activity in Saos-2 cells; assay: Alkaline phosphatase (ALP) activity in Saos-2 cells; format: cell-based
Experimental: ALP is an enzyme that releases inorganic phosphate from different intracellular substrates such as pyrophosphate and pyridoxal 5′-phosphate.^63 The inorganic phosphate is used in the formation of hydroxyapatite crystals which are then inserted in the extracellular protein scaffold to form the solid part of bone tissue.
Saos-2 cells were treated similarly as reported in the cell proliferation assay. The cells were seeded at a density of 2 000 cells/well and were treated with the inhibitors and the reference compounds for 3 days. The alkaline phosphatase (ALP) activity was measured using Sensolyte® pNPP Alkaline Phosphatase Assay Kit *Colorimetric* (AnaSpec, Fremont, Calif.) following the manufacturer's protocol. Briefly, after the 3 days of treatment, the cells were washed twice with washing buffer (provided with the kit) and lysed with 0.2% Triton X-100. The cell lysates were centrifuged and the supernatants were used to determine the ALP activity. The supernatants were deposed in a 96-well plate and incubated 30 min with a p-nitrophenyl phosphate solution (provided with the kit). The absorbance at 405 nm was measured with a Thermo max microplate reader (Molecular Devices, Sunnyvale, Calif.). The control (culture media+DMSO) is set to 100% of alkaline phosphatase activity.

Saos-2 (ER+) cells = assay: Proliferative activity on Saos-2 (ER+) cells, phenol library; format: cell-based; settings: 1 μM (stated for reference compounds); 7 days; control 100%
Experimental: Estrogens are known to have a beneficial effect on bones. […] The phenol derivatives 3′-EO-09 to 3′-EO-11 and 3′-EO-14 to 3′-EO-17 were tested on the osteoblast-like cell line Saos-2 to further evaluate their SERM capacity (FIG. 13A).
The osteoblast-like Saos-2 cells were maintained in culture flasks (175 cm^2 growth area, BD Falcon) at 37° C. in a 5% CO2 humidified atmosphere and grown in McCoy's 5A medium supplemented with 10% fetal bovine serum (FBS), penicillin (100 IU/mL) and streptomycin (100 μg/mL). Penicillin/streptomycin mix, L-Glutamine, normal and charcoal-stripped FBS were purchased from Wisent, Inc. (St-Bruno, QC, Canada), phenol-red free McCoy's 5A was purchased from PromoCell (Heidelberg, Germany). Chemicals tested were first dissolved in DMSO and subsequent dilutions were done in the cell culture medium. The final concentration of DMSO in the culture medium was 0.1% or less. For the proliferation assay, the […] FBS in the culture medium was replaced with 10% charcoal-stripped FBS. The cells were seeded in 96-well plates at a density of 10 000 cells/well and allowed to attach 24 h. After 24 h, the phenolic compounds diluted in culture medium were added to the wells and replaced every 2 days for 7 days of treatment. As reported above, MTS was used as an indirect colorimetric measurement of cell proliferation according to the manufacturer's instructions, except the plate were incubated 2 h instead of 4 h.

T-47D cells [3] = assay: T-47D cell proliferation (estrogenicity / cytotoxicity), MTS; format: cell-based
Experimental: The library of phenolic compounds described above was tested on estrogen-sensitive breast cancer T-47D cells.
In Table 1, cell proliferation of control cells is set to 100%. Results are expressed as mean±SD of one experiment in triplicate.
as §1
(§2) The cells were plated in 96-well plates at a density of 3 000 cells/well and allowed to attach for 48 h. After this pre-incubation, the inhibitors and the reference compounds diluted in fresh culture media were added to the wells and replaced every 2 days for 7 days of treatment.

T-47D cells [4] = assay: T-47D cell proliferation in presence of E2 (antiestrogenicity); format: cell-based
Experimental: as §1, §2

[5] = system: alkaline phosphatase activity in Saos-2 cells; assay: Alkaline phosphatase assay (Saos-2 cells), phenol library; format: cell-based; settings: 1 nM; control (no treatment) fixed at 100%
Experimental: We also investigated the effect of selected phenol derivatives on alkaline phosphatase activity in Saos-2 cells (FIG. 13B).
Saos-2 cells were used similarly as reported in the cell proliferation assay. The cells were seeded at a density of 2 000 cells/well and treated for 3 days with each compound to be tested. The alkaline phosphatase (ALP) activity was measured using the Sensolyte® pNPP Alkaline Phosphatase Assay Kit *Colorimetric* (AnaSpec, Freemont, Calif.) following the manufacturer's protocol. Briefly, after three days of treatment, the cells were washed twice with washing buffer (provided with the kit) and lysed with 0.2% Triton X-100. The cell lysates were centrifuged and the supernatants were used to determine ALP activity. The supernatants were deposed in a 96-well plate and incubated for 30 minutes with a p-nitrophenyl phosphate solution (provided with the kit). The absorbance at 405 nm was measured with a Thermo max microplate reader (Molecular Devices, Sunnyvale, Calif.). The control (culture media+DMSO) is set to 100% of alkaline phosphatase activity.

[6] = system: AR+ tissues (prostate and seminal vesicles); settings: cited from earlier work
[7] = system: uterus weight of ovariectomized mice (OVX); settings: cited from earlier work
MCF-7 (ER+) cells = assay: Proliferative (estrogenic) activity on MCF-7 (ER+) cells; format: cell-based; settings: 1 μM; 7 days; control 100%
Experimental: The next step was to determine the presence or absence of estrogenic activity. To do so, cell proliferative assays were carried out on MCF-7 cells. […] Phenols of the corresponding sulfamate library 3-EO and 4-EO are referred to as library 3′-EO and library 4′-EO, respectively.
This cell assay was carried out according to a procedure previously described to determine the estrogenic activity of enzyme inhibitors on the growth of estrogen-sensitive MCF-7 cells.^77 All chemicals tested were first dissolved in DMSO and subsequent dilutions were done in the proper cell culture media. The final concentration of DMSO in the culture medium was 0.1% or less. 3-(4,5-dimethylthiazol-2-yl)-5-(3-carboxymethoxyphenyl)-2-(4-sulfophenyl)-2-H-tetrazolium (MTS) was used as an indirect colorimetric measurement of cell proliferation according to the manufacturer's instructions (Promega, Madison, Wis.). At the end of the treatments, 20 μL of MTS solution was added to each well (100 μL) and the MCF-7 cells were incubated 4 h at 37° C. The absorbance at 490 nm was then measured with a Thermo max microplate reader (Molecular Devices, Sunnyvale, Calif.). The control (culture media+DMSO) is set to 100% of cell proliferation.

[8] = 1 μM, in % of control (100%; 0.1 nM of estradiol)

SMILES: Cl.O=C(c1ccc(OCCN2CCCCC2)cc1)c1c(-c2ccc(O)cc2)sc2cc(O)ccc12 [raloxifene, Raloxifene hydrochloride, reference compound]
- IC50 (steroid sulfatase (STS)): > 1 µM
- Saos-2 cell proliferation, dose response ([1]; 1 nM to 1 μM, 7 days): apparent dose-dependent response
- Bone cells Saos-2 (ER+) SERM effect Proliferative activity (%) ([1]; 0.1 μM): 75%
- Bone cells Saos-2 (ER+) SERM effect Proliferative activity (%) ([1]; 1 μM): 83%
- Bone cells Saos-2 (ER+) SERM effect Alkaline phosphatase activity (%) ([2]; 0.1 nM): 86%
- stimulation of ALP activity in presence of ICI-164,384 or MPP + PHTPP ([2]; 0.1 nM compound, antagonists 1 μM, 3 days): completely blocked the stimulation
- proliferation of Saos-2 cells (Saos-2 (ER+) cells): 123%
- estrogenic activity on T-47D cells (T-47D cells [3]; 0.01 μM to 5 μM, 7 days): no estrogenic activity
- Breast cancer cells T-47D (ER+) Agonist activity (%) (T-47D cells [3]; [8]): 0%
- cytotoxicity on T-47D cells (T-47D cells [3]; 5 μM): induced some cytotoxicity
- block of E2 stimulation of T-47D proliferation (T-47D cells [4]; 0.01 μM to 1 μM, E2 0.1 nM): able to block the E2 stimulation
- Breast cancer cells T-47D (ER+) Antagonist activity (%) (T-47D cells [4]; [8]): 96%
- cytotoxicity on T-47D cells in presence of E2 (T-47D cells [4]; 5 μM, E2 0.1 nM): some cytotoxicity

SMILES: CCN(Cc1ccc(F)cc1)Cc1ccc(C(=O)N2CCc3ccc(O)cc3C2)cc1 [3′-EO-17]
- ALP activity in Saos-2 cells [5]: 152%

SMILES: COc1cc2c(cc1OS(N)(=O)=O)CC[C@@H]1[C@@H]2CC[C@@]2(C)[C@H]1CC[C@@]2(O)Cc1ccccc1 [EM-1913, 3-O-sulfamate 17α-benzyl-2-methoxy-estra-1,3,5(10)-trien-17β-ol]
- androgenic effect in the absence of DHEAS ([6]; injected in the absence of DHEAS): No more harmful androgenic effect was detected
- effect of DHEAS on the weight of AR+ tissues (prostate and seminal vesicles) ([6]; with DHEAS): block the effect of DHEAS
- estrogenic activity: uterus weight of OVX mice ([7]; compound alone): did not stimulate the uterus weight
- stimulation of uterine weight induced by E1S in OVX mice ([7]; with E1S): effectively blocked

SMILES: CCN(Cc1ccc(C(=O)N2CCc3ccc(O)cc3C2)cc1)Cc1ccccn1 [3′-EO-14]
- ALP activity in Saos-2 cells [5]: 147%
- proliferation of Saos-2 cells (Saos-2 (ER+) cells): 140%

SMILES: CCN(Cc1ccc(C(=O)N2CCc3ccc(O)cc3C2)cc1)Cc1cccc(Br)c1 [3′-EO-12]
- proliferation of MCF-7 (ER+) cells (MCF-7 (ER+) cells): 118%

SMILES: CC/C(=C(\c1ccccc1)c1ccc(OCCN(C)C)cc1)c1ccccc1 [tamoxifen, reference compound]
- ALP activity in Saos-2 cells [5]: 143%

From US9708305B2, “Substituted 1,2,3,4-tetrahydroisoquinoline derivatives for the treatment of hormone-dependent diseases” (UNIVERSITÉ LAVAL, priority 2013, dated 2017)
